Source: PMC5218480 (PLoS ONE, 2017)

Tested on: MV-4-11 cells
Assay: Gene expression microarray analysis (Affymetrix PrimeView) and GSEA
Type: cell-based, human
Set-up: RFU PODN (11730768_x_at) / Fold change /veh PODN (11730768_x_at) / RFU LINC00158 (11744669_a_at) / Fold change /veh LINC00158 (11744669_a_at) / RFU DUSP10 (11751237_a_at) / Fold change /veh DUSP10 (11751237_a_at) / RFU ID3 (11757404_x_at) / Fold change /veh ID3 (11757404_x_at) / RFU PLEKHG5 (11737974_s_at) / Fold change /veh PLEKHG5 (11737974_s_at) / RFU LRRC4B (11730491_at) / Fold change /veh LRRC4B (11730491_at) / RFU GIMAP4 (11747438_a_at) / Fold change /veh GIMAP4 (11747438_a_at) / RFU KRT8 (11758183_x_at) / Fold change /veh KRT8 (11758183_x_at) / RFU CNN1 (11734310_a_at) / Fold change /veh CNN1 (11734310_a_at) / RFU VPS37D (11726825_at) / Fold change /veh VPS37D (11726825_at) / RFU C10orf10 (11716522_x_at) / Fold change /veh C10orf10 (11716522_x_at) / RFU KIR2DL2 /// KIR2DL4 /// KIR2DL5A /// KIR2DL5B /// KIR2DS1 /// KIR2DS2 /// KIR2DS3 /// KIR2DS4 /// KIR3DL3 /// KIR3DL3 /// KIR3DS1 (11738374_at) / Fold change /veh KIR2DL2 /// KIR2DL4 /// KIR2DL5A /// KIR2DL5B /// KIR2DS1 /// KIR2DS2 /// KIR2DS3 /// KIR2DS4 /// KIR3DL3 /// KIR3DL3 /// KIR3DS1 (11738374_at) / RFU C1QL1 (11718748_at) / Fold change /veh C1QL1 (11718748_at) / RFU TMPRSS4 (11747572_a_at) / Fold change /veh TMPRSS4 (11747572_a_at) / RFU HAMP (11756126_x_at) / Fold change /veh HAMP (11756126_x_at) / RFU RNFT2 (11725882_a_at) / Fold change /veh RNFT2 (11725882_a_at) / RFU NR4A2 (11747474_a_at) / Fold change /veh NR4A2 (11747474_a_at) / RFU ABCC12 (11746883_a_at) / Fold change /veh ABCC12 (11746883_a_at) / RFU TMEM136 (11760407_x_at) / Fold change /veh TMEM136 (11760407_x_at) / RFU CLDN22 /// WWC2 (11732394_at) / Fold change /veh CLDN22 /// WWC2 (11732394_at) / RFU HLA-DPB1 (11760878_x_at) / Fold change /veh HLA-DPB1 (11760878_x_at) / RFU SPINT1 (11716480_a_at) / Fold change /veh SPINT1 (11716480_a_at) / RFU GAP43 (11754022_s_at) / Fold change /veh GAP43 (11754022_s_at) / RFU A4GNT (11735810_at) / Fold change /veh A4GNT (11735810_at) / RFU PRB3 (11715151_x_at) / Fold change /veh PRB3 (11715151_x_at) / RFU TUBB4B (11761932_at) / Fold change /veh TUBB4B (11761932_at) / RFU CAPN14 (11732068_a_at) / Fold change /veh CAPN14 (11732068_a_at) / RFU TMCC2 (11721928_a_at) / Fold change /veh TMCC2 (11721928_a_at) / RFU IRGQ (11745062_a_at) / Fold change /veh IRGQ (11745062_a_at) / RFU FAM174B (11720279_a_at) / Fold change /veh FAM174B (11720279_a_at) / RFU TMPRSS4 (11748680_a_at) / Fold change /veh TMPRSS4 (11748680_a_at) / RFU FAM212B (11763350_a_at) / Fold change /veh FAM212B (11763350_a_at) / RFU PLEKHG5 (11743358_a_at) / Fold change /veh PLEKHG5 (11743358_a_at) / RFU ZSCAN30 (11745921_a_at) / Fold change /veh ZSCAN30 (11745921_a_at) / RFU CMKLR1 (11741424_a_at) / Fold change /veh CMKLR1 (11741424_a_at) / RFU LOC101060620 /// MAPK8IP1 (11723275_at) / Fold change /veh LOC101060620 /// MAPK8IP1 (11723275_at) / RFU SPTSSB (11747773_x_at) / Fold change /veh SPTSSB (11747773_x_at) / RFU PRSS12 (11739890_at) / Fold change /veh PRSS12 (11739890_at) / RFU BIN1 (11741810_x_at) / Fold change /veh BIN1 (11741810_x_at) / RFU WNT11 (11732464_a_at) / Fold change /veh WNT11 (11732464_a_at) / RFU C10orf10 (11716521_a_at) / Fold change /veh C10orf10 (11716521_a_at) / RFU C5orf56 (11738089_at) / Fold change /veh C5orf56 (11738089_at) / RFU CYB561 (11721691_x_at) / Fold change /veh CYB561 (11721691_x_at) / RFU ANKRD19P (11752326_a_at) / Fold change /veh ANKRD19P (11752326_a_at) / RFU OR2T12 /// OR2T33 /// OR2T8 (11738714_s_at) / Fold change /veh OR2T12 /// OR2T33 /// OR2T8 (11738714_s_at) / RFU VCAN (11748164_a_at) / Fold change /veh VCAN (11748164_a_at) / RFU JSRP1 (11732532_at) / Fold change /veh JSRP1 (11732532_at) / RFU KRTAP10-11 (11738290_x_at) / Fold change /veh KRTAP10-11 (11738290_x_at) / RFU MYO3A (11730013_a_at) / Fold change /veh MYO3A (11730013_a_at) / RFU EBF3 (11725865_a_at) / Fold change /veh EBF3 (11725865_a_at) / RFU CAMK2N1 (11719241_x_at) / Fold change /veh CAMK2N1 (11719241_x_at) / RFU C5orf56 (11738088_a_at) / Fold change /veh C5orf56 (11738088_a_at) / RFU OLFML3 (11715873_a_at) / Fold change /veh OLFML3 (11715873_a_at) / RFU LOC100653217 /// NTM (11731650_a_at) / Fold change /veh LOC100653217 /// NTM (11731650_a_at) / RFU MAPK11 (11762145_a_at) / Fold change /veh MAPK11 (11762145_a_at) / RFU FIZ1 (11724087_x_at) / Fold change /veh FIZ1 (11724087_x_at) / RFU OASL (11726364_x_at) / Fold change /veh OASL (11726364_x_at) / RFU SOX15 (11748057_x_at) / Fold change /veh SOX15 (11748057_x_at) / RFU CD79A (11719716_a_at) / Fold change /veh CD79A (11719716_a_at) / RFU HIST1H1D (11736915_at) / Fold change /veh HIST1H1D (11736915_at) / RFU CASKIN2 (11723855_a_at) / Fold change /veh CASKIN2 (11723855_a_at) / RFU LOC730098 (11760151_x_at) / Fold change /veh LOC730098 (11760151_x_at) / RFU OR4N2 (11742367_at) / Fold change /veh OR4N2 (11742367_at) / RFU PRRT2 (11749266_a_at) / Fold change /veh PRRT2 (11749266_a_at) / RFU SNX32 (11753110_a_at) / Fold change /veh SNX32 (11753110_a_at) / RFU CDHR5 (11726645_a_at) / Fold change /veh CDHR5 (11726645_a_at) / RFU RCAN1 (11760418_a_at) / Fold change /veh RCAN1 (11760418_a_at) / RFU FAM167A (11723789_a_at) / Fold change /veh FAM167A (11723789_a_at) / RFU FAM26E (11764081_at) / Fold change /veh FAM26E (11764081_at) / RFU ISYNA1 (11749810_s_at) / Fold change /veh ISYNA1 (11749810_s_at) / RFU ACY1 (11761880_at) / Fold change /veh ACY1 (11761880_at) / RFU 11764098_at / Fold change /veh 11764098_at / RFU SAMD14 (11745864_x_at) / Fold change /veh SAMD14 (11745864_x_at) / RFU NPB (11741838_a_at) / Fold change /veh NPB (11741838_a_at) / RFU TMPRSS6 (11731388_a_at) / Fold change /veh TMPRSS6 (11731388_a_at) / RFU KRTAP10-2 (11738614_at) / Fold change /veh KRTAP10-2 (11738614_at) / RFU ARHGAP8 /// PRR5-ARHGAP8 (11727945_x_at) / Fold change /veh ARHGAP8 /// PRR5-ARHGAP8 (11727945_x_at) / RFU KRTAP5-7 /// NADSYN1 (11734609_at) / Fold change /veh KRTAP5-7 /// NADSYN1 (11734609_at) / RFU RASL12 (11751679_a_at) / Fold change /veh RASL12 (11751679_a_at) / RFU CDKN2B (11736163_a_at) / Fold change /veh CDKN2B (11736163_a_at) / RFU PRF1 (11729649_at) / Fold change /veh PRF1 (11729649_at) / RFU, ZNF638 /// ZNF638-IT1 / Fold change vs veh, ZNF638 /// ZNF638-IT1 / RFU, PANK3 / Fold change vs veh, PANK3 / RFU, SH3YL1 / Fold change vs veh, SH3YL1 / RFU, ZEB2 / Fold change vs veh, ZEB2 / RFU, NRIP1 / Fold change vs veh, NRIP1 / RFU, PTTG1IP / Fold change vs veh, PTTG1IP / RFU, CAPN2 / Fold change vs veh, CAPN2 / RFU, MED14 / Fold change vs veh, MED14 / RFU, SNORA58 / Fold change vs veh, SNORA58 / RFU, C1orf63 / Fold change vs veh, C1orf63 / RFU, LRRFIP1 / Fold change vs veh, LRRFIP1 / RFU, NDUFAF7 / Fold change vs veh, NDUFAF7 / RFU, SLC12A2 / Fold change vs veh, SLC12A2 / RFU, IBTK / Fold change vs veh, IBTK / RFU, ESF1 / Fold change vs veh, ESF1 / Fold change vs veh, TMEM50B / RFU, TAOK1 / Fold change vs veh, TAOK1 / RFU, ACBD3 / Fold change vs veh, ACBD3 / RFU, TMA16 / Fold change vs veh, TMA16 / RFU, RWDD3 / Fold change vs veh, RWDD3 / RFU, BCAT1 / Fold change vs veh, BCAT1 / RFU, EDEM3 / Fold change vs veh, EDEM3 / RFU, TMEM33 / Fold change vs veh, TMEM33 / RFU, WDR75 / Fold change vs veh, WDR75 / RFU, AHCTF1 / Fold change vs veh, AHCTF1 / RFU, TFRC / Fold change vs veh, TFRC / RFU, ZDHHC17 / Fold change vs veh, ZDHHC17 / RFU, NOM1 / Fold change vs veh, NOM1 / RFU, ARL8B / Fold change vs veh, ARL8B / RFU, ZBTB11 / Fold change vs veh, ZBTB11 / RFU, TAMM41 / Fold change vs veh, TAMM41 / RFU, KIAA1704 /// LOC100996395 / Fold change vs veh, KIAA1704 /// LOC100996395 / RFU, ING1 / Fold change vs veh, ING1 / RFU, TRMT61B / Fold change vs veh, TRMT61B / RFU, FUBP3 / Fold change vs veh, FUBP3 / RFU, TP53 / Fold change vs veh, TP53 / RFU, TNKS2 / Fold change vs veh, TNKS2 / RFU, ZFP14 / Fold change vs veh, ZFP14 / RFU, ACTR2 / Fold change vs veh, ACTR2 / RFU, PPP3R1 / Fold change vs veh, PPP3R1 / RFU, PIK3R1 / Fold change vs veh, PIK3R1 / RFU, HNRNPA1 / Fold change vs veh, HNRNPA1 / RFU, RNF170 / Fold change vs veh, RNF170 / RFU, ZNF28 / Fold change vs veh, ZNF28 / RFU, RNGTT / Fold change vs veh, RNGTT / RFU, OGT / Fold change vs veh, OGT / RFU, BRD1 / Fold change vs veh, BRD1 / RFU, MARS / Fold change vs veh, MARS / RFU, ZNF655 / Fold change vs veh, ZNF655 / RFU, FAHD1 / Fold change vs veh, FAHD1 / RFU, BDP1 / Fold change vs veh, BDP1 / RFU, LRRCC1 / Fold change vs veh, LRRCC1 / RFU, ARID1A / Fold change vs veh, ARID1A / RFU, ZNF146 / Fold change vs veh, ZNF146 / RFU, ZNF330 / Fold change vs veh, ZNF330 / RFU, GPN3 / Fold change vs veh, GPN3 / RFU, C9orf123 / Fold change vs veh, C9orf123 / RFU, N4BP2L2 / Fold change vs veh, N4BP2L2 / RFU, ARFIP1 / Fold change vs veh, ARFIP1 / RFU, FAM179B / Fold change vs veh, FAM179B / RFU, BCL10 / Fold change vs veh, BCL10 / RFU, UHRF1BP1L / Fold change vs veh, UHRF1BP1L / RFU, BET1 / Fold change vs veh, BET1 / RFU, CNOT2 / Fold change vs veh, CNOT2 / RFU, ZNF268 / Fold change vs veh, ZNF268 / Fold change vs veh, ZNF507 / RFU, DGCR2 / Fold change vs veh, DGCR2 / RFU, WDSUB1 / Fold change vs veh, WDSUB1 / Fold change vs veh, HSP90B1 /// MIR3652 / RFU, ADSS / Fold change vs veh, ADSS / RFU, GK / Fold change vs veh, GK / RFU, ZNF148 / Fold change vs veh, ZNF148 / RFU, TAF9 / Fold change vs veh, TAF9 / RFU, SLC1A5 / Fold change vs veh, SLC1A5 / RFU, SLMO2 / Fold change vs veh, SLMO2 / RFU, ABCC4 / Fold change vs veh, ABCC4 / RFU, LOC101060439 /// RAP1B / Fold change vs veh, LOC101060439 /// RAP1B / RFU, RFX7 / Fold change vs veh, RFX7 / RFU, GTPBP10 / Fold change vs veh, GTPBP10 / RFU, CNEP1R1 / Fold change vs veh, CNEP1R1 / RFU, BIVM-ERCC5 /// ERCC5 / Fold change vs veh, BIVM-ERCC5 /// ERCC5 / RFU, ILF3 / Fold change vs veh, ILF3 / RFU 11762660_at / Fold change /veh 11762660_at / RFU VCAN (11757783_s_at) / Fold change /veh VCAN (11757783_s_at) / RFU DDX43 (11728927_at) / Fold change /veh DDX43 (11728927_at) / RFU KRT8 (11758188_x_at) / Fold change /veh KRT8 (11758188_x_at) / RFU NKD1 (11759106_at) / Fold change /veh NKD1 (11759106_at) / RFU SRD5A1 (11742802_a_at) / Fold change /veh SRD5A1 (11742802_a_at) / RFU TPSAB1 /// TPSB2 (11721975_s_at) / Fold change /veh TPSAB1 /// TPSB2 (11721975_s_at) / RFU GSTM3 (11746129_a_at) / Fold change /veh GSTM3 (11746129_a_at) / RFU IL23R (11737362_x_at) / Fold change /veh IL23R (11737362_x_at) / RFU TMEM51 (11727254_a_at) / Fold change /veh TMEM51 (11727254_a_at) / RFU PIWIL2 (11732686_x_at) / Fold change /veh PIWIL2 (11732686_x_at) / RFU ORM1 (11744905_x_at) / Fold change /veh ORM1 (11744905_x_at) / RFU CCDC152 (11743942_at) / Fold change /veh CCDC152 (11743942_at) / RFU ECM1 (11717891_a_at) / Fold change /veh ECM1 (11717891_a_at) / RFU IL23R (11748794_a_at) / Fold change /veh IL23R (11748794_a_at) / RFU TNFAIP8L3 (11732012_x_at) / Fold change /veh TNFAIP8L3 (11732012_x_at) / RFU MBOAT4 (11741988_at) / Fold change /veh MBOAT4 (11741988_at) / RFU 11764193_at / Fold change /veh 11764193_at / RFU TMEM53 (11763286_at) / Fold change /veh TMEM53 (11763286_at) / RFU MAGEB2 (11727129_at) / Fold change /veh MAGEB2 (11727129_at) / RFU TMEM200A (11744735_a_at) / Fold change /veh TMEM200A (11744735_a_at) / RFU CCDC152 (11751479_a_at) / Fold change /veh CCDC152 (11751479_a_at) / RFU FAM211A (11726209_a_at) / Fold change /veh FAM211A (11726209_a_at) / RFU RGS16 (11746705_a_at) / Fold change /veh RGS16 (11746705_a_at) / RFU VCAN (11755009_s_at) / Fold change /veh VCAN (11755009_s_at) / RFU RHOB (11743442_s_at) / Fold change /veh RHOB (11743442_s_at) / RFU RGS16 (11720943_a_at) / Fold change /veh RGS16 (11720943_a_at) / RFU RGS16 (11720944_at) / Fold change /veh RGS16 (11720944_at) / RFU, VPS4B / Fold change vs veh, VPS4B / RFU, CREB1 / Fold change vs veh, CREB1 / RFU, DNAJC13 / Fold change vs veh, DNAJC13 / RFU, GNAQ / Fold change vs veh, GNAQ / RFU, CDK5R1 / Fold change vs veh, CDK5R1 / RFU, ZRANB3 / Fold change vs veh, ZRANB3 / RFU, CUL4A / Fold change vs veh, CUL4A / RFU, CCNY / Fold change vs veh, CCNY / RFU, UFL1 / Fold change vs veh, UFL1 / RFU, COG3 / Fold change vs veh, COG3 / RFU, DIAPH2 / Fold change vs veh, DIAPH2 / RFU, SKA2 / Fold change vs veh, SKA2 / RFU, AFF3 / Fold change vs veh, AFF3 / RFU, LMF1 / Fold change vs veh, LMF1 / RFU, IPO11 / Fold change vs veh, IPO11 / RFU, DFFB / Fold change vs veh, DFFB / RFU, FOXP1 / Fold change vs veh, FOXP1 / RFU, CARD8 / Fold change vs veh, CARD8 / RFU, STRN3 / Fold change vs veh, STRN3 / RFU, ADK / Fold change vs veh, ADK / RFU, RASSF2 / Fold change vs veh, RASSF2 / RFU, WIPF1 / Fold change vs veh, WIPF1 / RFU, LARP1B / Fold change vs veh, LARP1B / RFU, RASA1 / Fold change vs veh, RASA1 / RFU, RB1 / Fold change vs veh, RB1 / RFU, PPFIA1 / Fold change vs veh, PPFIA1 / RFU, MAT2A / Fold change vs veh, MAT2A / RFU, CCT5 / Fold change vs veh, CCT5 / RFU, WDR92 / Fold change vs veh, WDR92 / RFU, CUX1 / Fold change vs veh, CUX1 / RFU, TTC7A / Fold change vs veh, TTC7A / RFU, TMEM135 / Fold change vs veh, TMEM135 / RFU, DEPTOR / Fold change vs veh, DEPTOR / RFU, CPM / Fold change vs veh, CPM / RFU, DNAJB6 / Fold change vs veh, DNAJB6 / RFU, CACNA2D3 / Fold change vs veh, CACNA2D3 / RFU, DTX4 / Fold change vs veh, DTX4 / RFU, TFCP2 / Fold change vs veh, TFCP2 / RFU, GMCL1 /// GMCL1P1 / Fold change vs veh, GMCL1 /// GMCL1P1 / RFU, AEBP2 / Fold change vs veh, AEBP2 / RFU, SNHG1 /// SNORD22 /// SNORD25 /// SNORD26 /// SNORD27 /// SNORD28 /// SNORD29 /// SNORD31 / Fold change vs veh, SNHG1 /// SNORD22 /// SNORD25 /// SNORD26 /// SNORD27 /// SNORD28 /// SNORD29 /// SNORD31 / Fold change (Aza/veh), C12orf56 (ProbeSet 11735607_a_at) / Fold change (ACY-1035/veh), C12orf56 (ProbeSet 11735607_a_at) / Fold change (Aza/veh), FGFR1OP (ProbeSet 11751329_s_at) / Fold change (ACY-1035/veh), FGFR1OP (ProbeSet 11751329_s_at) / Fold change (Aza/veh), VPS36 (ProbeSet 11739960_a_at) / Fold change (ACY-1035/veh), VPS36 (ProbeSet 11739960_a_at) / RFU SYPL1 (11715823_x_at) / Fold change /veh SYPL1 (11715823_x_at) / RFU IGFBP7 (11715501_s_at) / Fold change /veh IGFBP7 (11715501_s_at) / RFU REEP3 (11722064_at) / Fold change /veh REEP3 (11722064_at) / RFU IGLL1 (11728026_x_at) / Fold change /veh IGLL1 (11728026_x_at): dose or concentration left out as unconfirmed
Conditions: ProbeSet 11759094_a_at; LIST D

For `Nc1ncn([C@@H]2O[C@H](CO)[C@@H](O)[C@H]2O)c(=O)n1` [azacitidine], the “Fold change vs veh, GNAQ” value was 0.76.
